Experiment [1] deals with T1, Tyrosine-protein kinase ABL1 (Homo sapiens, UniProt P00519). Put plainly: Inhibition of nonphosphorylated ABL1 (unknown origin) at 1 uM by Ambit Kinomescan binding assay relative to control.
Experiment [2] addresses 5'-AMP-activated protein kinase catalytic subunit alpha-2 (Homo sapiens) (UniProt P54646). In words: Inhibition of AMPKa2 Lys2 labeling site in human A-375 cells at 0.05 uM by KiNativ Profiling analysis relative to control. It is filed as cell-based.
Experiment [3] deals with Serine/threonine-protein kinase 38 (Homo sapiens) (UniProt Q15208). Put plainly: Inhibition of NDR1 ACT labeling site in human A-375 cells at 5 uM by KiNativ Profiling analysis relative to control. It is filed as cell-based.
Chain of Serine/threonine-protein kinase 38 (Homo sapiens) (Q15208 2-465 limits assumed): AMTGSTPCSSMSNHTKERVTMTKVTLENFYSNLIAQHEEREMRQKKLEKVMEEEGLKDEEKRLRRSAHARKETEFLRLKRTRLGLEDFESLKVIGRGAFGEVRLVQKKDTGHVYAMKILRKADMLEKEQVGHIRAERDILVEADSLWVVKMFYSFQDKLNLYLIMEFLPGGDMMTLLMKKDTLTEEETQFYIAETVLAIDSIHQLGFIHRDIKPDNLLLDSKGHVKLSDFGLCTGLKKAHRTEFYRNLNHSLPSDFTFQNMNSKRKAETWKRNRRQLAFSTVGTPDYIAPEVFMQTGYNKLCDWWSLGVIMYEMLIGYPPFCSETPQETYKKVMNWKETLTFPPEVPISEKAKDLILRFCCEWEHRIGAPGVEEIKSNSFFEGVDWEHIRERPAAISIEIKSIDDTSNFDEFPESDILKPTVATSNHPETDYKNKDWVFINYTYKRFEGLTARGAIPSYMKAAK
The target of experiment [4] is Myosin light chain kinase, smooth muscle (Homo sapiens) (UniProt Q15746). In words: Inhibition of MYLK (unknown origin) at 1 uM by Ambit Kinomescan binding assay relative to control; values are per cent of control.
Chain of Myosin light chain kinase, smooth muscle (Homo sapiens) (Q15746 whole entry): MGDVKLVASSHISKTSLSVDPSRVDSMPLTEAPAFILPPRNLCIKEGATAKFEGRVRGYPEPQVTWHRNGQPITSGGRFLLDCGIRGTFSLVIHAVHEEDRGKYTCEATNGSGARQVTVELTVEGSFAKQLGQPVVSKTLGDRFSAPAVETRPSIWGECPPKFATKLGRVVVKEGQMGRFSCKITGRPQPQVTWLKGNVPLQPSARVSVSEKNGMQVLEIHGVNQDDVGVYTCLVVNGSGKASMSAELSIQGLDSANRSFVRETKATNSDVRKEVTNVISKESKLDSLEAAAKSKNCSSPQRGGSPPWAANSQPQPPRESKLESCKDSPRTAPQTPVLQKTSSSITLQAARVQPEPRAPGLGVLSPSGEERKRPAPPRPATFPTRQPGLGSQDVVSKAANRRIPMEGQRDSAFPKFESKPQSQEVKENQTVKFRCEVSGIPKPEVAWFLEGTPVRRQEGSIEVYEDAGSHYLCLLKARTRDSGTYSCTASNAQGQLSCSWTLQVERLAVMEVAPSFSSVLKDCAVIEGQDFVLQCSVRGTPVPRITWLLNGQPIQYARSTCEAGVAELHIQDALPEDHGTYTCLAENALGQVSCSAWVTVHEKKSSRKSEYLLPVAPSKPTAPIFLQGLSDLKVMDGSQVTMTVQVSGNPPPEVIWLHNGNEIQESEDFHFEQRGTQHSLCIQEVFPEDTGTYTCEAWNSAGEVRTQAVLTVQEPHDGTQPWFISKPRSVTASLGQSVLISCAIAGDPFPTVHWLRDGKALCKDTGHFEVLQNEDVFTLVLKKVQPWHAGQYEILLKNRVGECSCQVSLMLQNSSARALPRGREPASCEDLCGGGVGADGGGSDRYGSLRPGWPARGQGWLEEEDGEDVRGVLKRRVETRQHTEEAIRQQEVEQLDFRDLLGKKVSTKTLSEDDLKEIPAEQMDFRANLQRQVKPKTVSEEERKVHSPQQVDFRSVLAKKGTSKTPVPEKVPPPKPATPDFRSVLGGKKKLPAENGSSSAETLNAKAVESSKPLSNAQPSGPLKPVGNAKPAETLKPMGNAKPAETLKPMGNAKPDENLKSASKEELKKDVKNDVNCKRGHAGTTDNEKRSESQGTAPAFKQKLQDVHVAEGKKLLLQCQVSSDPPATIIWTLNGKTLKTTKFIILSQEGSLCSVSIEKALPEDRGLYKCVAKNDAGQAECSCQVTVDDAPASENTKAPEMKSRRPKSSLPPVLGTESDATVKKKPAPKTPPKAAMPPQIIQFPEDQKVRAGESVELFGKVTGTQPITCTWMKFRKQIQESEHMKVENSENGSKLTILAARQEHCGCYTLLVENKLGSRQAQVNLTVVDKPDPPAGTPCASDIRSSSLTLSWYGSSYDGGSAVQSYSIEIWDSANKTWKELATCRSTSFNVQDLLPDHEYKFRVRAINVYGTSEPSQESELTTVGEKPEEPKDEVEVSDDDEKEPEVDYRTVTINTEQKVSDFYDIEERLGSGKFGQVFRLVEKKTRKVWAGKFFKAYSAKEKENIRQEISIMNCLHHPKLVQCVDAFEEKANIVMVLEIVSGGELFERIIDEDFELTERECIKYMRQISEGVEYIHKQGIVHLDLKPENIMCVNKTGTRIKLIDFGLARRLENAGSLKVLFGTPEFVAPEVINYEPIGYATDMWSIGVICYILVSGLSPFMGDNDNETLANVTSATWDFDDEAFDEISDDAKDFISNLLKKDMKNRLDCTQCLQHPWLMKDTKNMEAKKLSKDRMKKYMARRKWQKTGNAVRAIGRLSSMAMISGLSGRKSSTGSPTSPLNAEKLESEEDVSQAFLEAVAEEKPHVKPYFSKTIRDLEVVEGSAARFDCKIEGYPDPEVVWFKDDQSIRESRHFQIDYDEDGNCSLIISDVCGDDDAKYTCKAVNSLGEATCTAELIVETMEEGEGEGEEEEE
Experiment [5] has as its target Serine/threonine-protein kinase Nek7 (Homo sapiens) (UniProt Q8TDX7). Put plainly: Inhibition of NEK7 (unknown origin) at 10 uM by Ambit Kinomescan binding assay.
Experiment [6] concerns the target T2, Acylglycerol kinase, mitochondrial (Homo sapiens) (UniProt Q53H12).
T2 sequence (whole entry): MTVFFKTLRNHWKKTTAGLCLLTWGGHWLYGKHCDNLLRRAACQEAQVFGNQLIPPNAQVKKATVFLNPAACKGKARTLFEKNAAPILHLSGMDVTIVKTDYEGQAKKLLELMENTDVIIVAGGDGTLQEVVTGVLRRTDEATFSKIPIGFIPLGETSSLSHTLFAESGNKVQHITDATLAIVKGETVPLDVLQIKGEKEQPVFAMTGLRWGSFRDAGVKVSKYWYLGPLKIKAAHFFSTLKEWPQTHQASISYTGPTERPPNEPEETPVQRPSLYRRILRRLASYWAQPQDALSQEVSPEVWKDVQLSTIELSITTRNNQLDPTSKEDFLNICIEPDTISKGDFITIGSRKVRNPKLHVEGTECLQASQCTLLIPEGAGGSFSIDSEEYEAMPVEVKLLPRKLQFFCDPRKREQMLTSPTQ
Put plainly: Inhibition of AGK ATP labeling site in human Huh-7 cells at 1 uM by KiNativ Profiling analysis relative to control. It is filed as cell-based.

Experiment [7] deals with c-Jun N-terminal kinase, JNK (Homo sapiens) (UniProt P45983+P53779+P45984). In words: Inhibition of JNK1/2/3 K2 labeling site in human Huh-7 cells at 10 uM by KiNativ Profiling analysis relative to control. It is filed as cell-based.
Experiment [8] concerns the target T1, Tyrosine-protein kinase ABL1. In words: Inhibition of ABL ACT labeling site in human A-375 cells at 0.05 uM by KiNativ Profiling analysis relative to control. It is filed as cell-based.
Experiment [9] concerns the target eIF-2-alpha kinase GCN2 (Homo sapiens) (UniProt Q9P2K8). In words: Inhibition of GCN2 K2 labeling site in human Huh-7 cells at 10 uM by KiNativ Profiling analysis relative to control. In kind it is cell-based.
Experiment [10] concerns the target TGF-beta receptor type-2 (Homo sapiens) (UniProt P37173). Put plainly: Inhibition of TGFBR2 (unknown origin) at 10 uM by Ambit Kinomescan binding assay.
Experiment [11] concerns the target T3, Mitogen-activated protein kinase kinase kinase kinase 2 (Homo sapiens) (UniProt Q12851).
T3 sequence (whole entry): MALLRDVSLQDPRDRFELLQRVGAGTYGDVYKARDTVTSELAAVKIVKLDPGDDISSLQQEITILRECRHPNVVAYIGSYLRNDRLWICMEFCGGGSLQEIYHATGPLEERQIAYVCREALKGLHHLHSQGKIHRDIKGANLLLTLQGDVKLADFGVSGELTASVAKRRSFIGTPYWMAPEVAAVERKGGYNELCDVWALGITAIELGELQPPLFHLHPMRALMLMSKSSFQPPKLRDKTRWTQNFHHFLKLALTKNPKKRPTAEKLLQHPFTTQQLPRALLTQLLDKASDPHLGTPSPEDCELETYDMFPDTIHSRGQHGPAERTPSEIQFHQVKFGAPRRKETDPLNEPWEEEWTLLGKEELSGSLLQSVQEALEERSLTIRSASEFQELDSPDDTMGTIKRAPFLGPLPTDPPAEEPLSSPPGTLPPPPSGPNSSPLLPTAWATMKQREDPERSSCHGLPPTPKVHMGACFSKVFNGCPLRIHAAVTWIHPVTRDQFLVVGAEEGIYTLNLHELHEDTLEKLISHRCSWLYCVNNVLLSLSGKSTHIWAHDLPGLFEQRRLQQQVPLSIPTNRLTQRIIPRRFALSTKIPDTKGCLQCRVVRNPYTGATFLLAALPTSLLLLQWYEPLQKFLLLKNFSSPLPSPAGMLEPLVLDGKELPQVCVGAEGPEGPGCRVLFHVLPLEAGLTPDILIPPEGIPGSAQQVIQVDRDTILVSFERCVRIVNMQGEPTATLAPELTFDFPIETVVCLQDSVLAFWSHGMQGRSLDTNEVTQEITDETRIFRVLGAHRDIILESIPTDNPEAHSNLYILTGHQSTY
In words: Inhibition of MAP4K2 (GCK) Lys1 labeling site in human A-375 cells at 5 uM by KiNativ Profiling analysis relative to control. In kind it is cell-based.

Experiment [12] has as its target Peripheral plasma membrane protein CASK (Homo sapiens) (UniProt O14936). In words: Inhibition of CASK Lys1 labeling site in human Huh-7 cell lysate at 1 uM by KiNativ Profiling analysis relative to control.
Experiment [13] has as its target T4, Serine/threonine-protein kinase Sgk3 (Homo sapiens) (UniProt Q96BR1).
T4 sequence (whole entry): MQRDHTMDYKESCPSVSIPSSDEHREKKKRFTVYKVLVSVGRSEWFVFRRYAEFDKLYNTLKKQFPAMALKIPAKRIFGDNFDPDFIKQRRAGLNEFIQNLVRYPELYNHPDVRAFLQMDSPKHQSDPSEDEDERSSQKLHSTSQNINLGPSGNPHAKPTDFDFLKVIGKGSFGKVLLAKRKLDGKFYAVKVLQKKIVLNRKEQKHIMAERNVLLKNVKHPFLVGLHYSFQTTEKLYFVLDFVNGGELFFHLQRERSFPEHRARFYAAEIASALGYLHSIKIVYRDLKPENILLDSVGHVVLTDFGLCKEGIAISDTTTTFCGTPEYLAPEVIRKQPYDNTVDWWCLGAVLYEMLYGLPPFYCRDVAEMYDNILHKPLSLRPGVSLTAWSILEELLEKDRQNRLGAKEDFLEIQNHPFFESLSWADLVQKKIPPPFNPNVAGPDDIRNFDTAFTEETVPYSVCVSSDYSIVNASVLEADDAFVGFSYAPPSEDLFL
In words: Inhibition of SGK3 Lys2 labeling site in human Huh-7 cell lysate at 1 uM by KiNativ Profiling analysis relative to control. In kind it is subcellular.

Molecules are shown by their SMILES. Activity calls are given as the source filed them. The rule behind the calls is not given here. Where only a bound is given, the exact number is not on record here.

What is called inhibition is the relative decrease from the control value, in per cent. One may read the residual activity as the activity still measured, relative to the control. Read a high residual activity as much activity left.

T1 sequence (P00519 whole entry): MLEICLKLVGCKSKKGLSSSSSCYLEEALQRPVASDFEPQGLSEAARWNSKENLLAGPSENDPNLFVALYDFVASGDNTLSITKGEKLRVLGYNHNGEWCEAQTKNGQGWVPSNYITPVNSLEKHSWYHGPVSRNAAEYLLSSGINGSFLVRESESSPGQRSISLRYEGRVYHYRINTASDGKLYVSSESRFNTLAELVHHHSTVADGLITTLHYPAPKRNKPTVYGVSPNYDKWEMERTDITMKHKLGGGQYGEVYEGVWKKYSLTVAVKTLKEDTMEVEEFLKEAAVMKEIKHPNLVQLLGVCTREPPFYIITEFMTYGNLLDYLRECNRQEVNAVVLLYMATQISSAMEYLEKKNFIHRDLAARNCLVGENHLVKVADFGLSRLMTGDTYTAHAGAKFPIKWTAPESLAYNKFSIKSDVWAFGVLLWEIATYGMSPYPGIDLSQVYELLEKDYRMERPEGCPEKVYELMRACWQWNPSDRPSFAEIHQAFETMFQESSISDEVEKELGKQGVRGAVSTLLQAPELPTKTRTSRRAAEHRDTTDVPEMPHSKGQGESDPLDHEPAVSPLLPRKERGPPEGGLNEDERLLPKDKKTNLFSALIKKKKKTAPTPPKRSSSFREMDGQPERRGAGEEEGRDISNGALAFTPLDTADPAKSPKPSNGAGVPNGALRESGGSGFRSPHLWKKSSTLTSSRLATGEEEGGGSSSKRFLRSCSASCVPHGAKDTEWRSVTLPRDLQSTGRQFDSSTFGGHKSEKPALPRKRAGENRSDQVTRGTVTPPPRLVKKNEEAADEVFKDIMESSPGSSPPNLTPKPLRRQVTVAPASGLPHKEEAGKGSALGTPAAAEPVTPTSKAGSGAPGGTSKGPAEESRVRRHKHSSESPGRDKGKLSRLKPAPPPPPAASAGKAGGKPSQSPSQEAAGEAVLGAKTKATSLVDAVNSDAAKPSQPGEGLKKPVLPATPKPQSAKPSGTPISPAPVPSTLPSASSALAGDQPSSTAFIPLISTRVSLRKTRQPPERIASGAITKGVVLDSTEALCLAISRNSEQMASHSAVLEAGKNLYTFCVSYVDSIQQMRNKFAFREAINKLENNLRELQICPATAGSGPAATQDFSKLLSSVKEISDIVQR
Chain of 5'-AMP-activated protein kinase catalytic subunit alpha-2 (Homo sapiens) (P54646 whole entry, looked up): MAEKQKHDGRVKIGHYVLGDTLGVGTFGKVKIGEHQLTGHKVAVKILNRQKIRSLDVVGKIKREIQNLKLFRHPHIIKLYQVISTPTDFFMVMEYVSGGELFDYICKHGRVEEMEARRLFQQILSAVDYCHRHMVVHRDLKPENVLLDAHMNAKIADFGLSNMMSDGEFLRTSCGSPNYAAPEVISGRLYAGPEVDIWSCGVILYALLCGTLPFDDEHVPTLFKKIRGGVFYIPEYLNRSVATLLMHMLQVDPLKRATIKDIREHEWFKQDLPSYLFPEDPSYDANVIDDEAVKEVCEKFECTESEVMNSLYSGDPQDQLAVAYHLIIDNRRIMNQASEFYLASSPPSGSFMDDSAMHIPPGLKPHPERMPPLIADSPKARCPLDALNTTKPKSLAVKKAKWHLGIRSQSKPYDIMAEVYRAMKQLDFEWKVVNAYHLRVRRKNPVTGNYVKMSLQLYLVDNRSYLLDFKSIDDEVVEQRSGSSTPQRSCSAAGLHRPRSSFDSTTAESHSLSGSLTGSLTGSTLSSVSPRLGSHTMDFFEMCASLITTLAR
Chain of TGF-beta receptor type-2 (Homo sapiens) (P37173 whole entry): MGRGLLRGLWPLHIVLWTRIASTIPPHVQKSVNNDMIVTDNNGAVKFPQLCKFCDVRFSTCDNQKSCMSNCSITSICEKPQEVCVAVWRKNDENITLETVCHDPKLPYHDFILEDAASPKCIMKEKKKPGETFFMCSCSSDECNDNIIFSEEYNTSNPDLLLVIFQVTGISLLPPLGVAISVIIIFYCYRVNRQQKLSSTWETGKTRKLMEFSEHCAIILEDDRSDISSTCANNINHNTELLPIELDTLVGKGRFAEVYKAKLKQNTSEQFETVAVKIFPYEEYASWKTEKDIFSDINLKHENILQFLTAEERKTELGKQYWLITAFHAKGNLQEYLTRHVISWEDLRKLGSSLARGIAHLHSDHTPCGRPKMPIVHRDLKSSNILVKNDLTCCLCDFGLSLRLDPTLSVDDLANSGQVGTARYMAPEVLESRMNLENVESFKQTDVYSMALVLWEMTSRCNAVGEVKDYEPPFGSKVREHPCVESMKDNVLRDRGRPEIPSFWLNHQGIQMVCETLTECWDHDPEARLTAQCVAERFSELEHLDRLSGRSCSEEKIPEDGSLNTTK
Chain of Serine/threonine-protein kinase Nek7 (Homo sapiens) (Q8TDX7 whole entry, looked up): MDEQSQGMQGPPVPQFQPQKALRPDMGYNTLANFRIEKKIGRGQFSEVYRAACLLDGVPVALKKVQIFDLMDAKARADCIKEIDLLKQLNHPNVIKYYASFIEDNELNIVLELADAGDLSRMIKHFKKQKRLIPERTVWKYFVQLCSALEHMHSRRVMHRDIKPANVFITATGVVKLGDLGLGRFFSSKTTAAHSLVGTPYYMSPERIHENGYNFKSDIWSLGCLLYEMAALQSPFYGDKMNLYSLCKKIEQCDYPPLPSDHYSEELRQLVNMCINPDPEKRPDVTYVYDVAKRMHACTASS

Regarding `CCN1CCN(Cc2ccc(NC(=O)c3ccc(C)c(/C=C/c4cnc5[nH]ccc5c4OC)c3)cc2C(F)(F)F)CC1`, the inhibition in [1] is 0%; in [2], 7.3%; in experiment [3], -2.6%. The residual activity in experiment [4] amounted to 81%.

In the case of `CCN1CCN(Cc2ccc(NC(=O)c3ccc(C)c(Oc4ccnc5[nH]ccc45)c3)cc2C(F)(F)F)CC1`, the inhibition result in experiment [5], in experiment [6] and in experiment [10] was “inactive” throughout. Besides, the inhibition in experiment [7] was 60.1%; in experiment [8], 88.5%; in experiment [9], 14.7%; in experiment [11] it was above 99.5%.

Turning to `CNc1cc(Oc2cc(C(=O)Nc3cc(N4CCN(C)CC4)cc(C(F)(F)F)c3)ccc2C)ncn1`, the results for the inhibition in experiment [12] and in [13] were -8.9% and 13.3%, respectively.

For the origin of these results see ChEMBL document CHEMBL5696442, “Discovery of type II inhibitors of TGFβ-activated kinase 1 (TAK1) and mitogen-activated protein kinase kinase kinase kinase 2 (MAP4K2)” (J Med Chem, 2015).
